{"source": "paper PMC2782746", "about": "(Bioorganic & medicinal chemistry, 2008)", "key": {"[1]": {"target": "T1, G. gallus AIR carboxylase (Gallus gallus, UniProt P38024)", "T1 sequence (P38024 1-426)": "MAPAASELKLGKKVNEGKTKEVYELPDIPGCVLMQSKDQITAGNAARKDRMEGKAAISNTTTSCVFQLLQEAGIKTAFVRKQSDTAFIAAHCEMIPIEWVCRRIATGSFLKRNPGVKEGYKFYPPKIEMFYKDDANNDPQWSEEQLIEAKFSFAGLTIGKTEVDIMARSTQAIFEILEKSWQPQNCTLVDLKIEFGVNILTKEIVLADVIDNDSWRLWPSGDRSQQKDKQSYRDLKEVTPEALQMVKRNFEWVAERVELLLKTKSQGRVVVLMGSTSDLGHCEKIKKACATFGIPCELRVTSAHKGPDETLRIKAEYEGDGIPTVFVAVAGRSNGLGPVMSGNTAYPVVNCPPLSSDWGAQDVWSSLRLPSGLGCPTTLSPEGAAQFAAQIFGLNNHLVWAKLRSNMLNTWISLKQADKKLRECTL", "settings": "cited from earlier work"}, "[2]": {"test_system": "N^5-CAIR mutase", "settings": "fungal and bacterial N^5-CAIR mutase; cited from earlier work"}, "[3]": {"target": "T1, G. gallus AIR carboxylase", "experiment": "Inhibition of AIR carboxylase, CAIR decarboxylation assay", "assay_type": "biochemical, G. gallus (chicken)"}, "[4]": {"target": "T1, G. gallus AIR carboxylase", "experiment": "Test as alternative substrates for AIR carboxylase", "assay_type": "biochemical", "settings": "UV and HPLC analysis"}}, "note": "“Also recorded” adds a separate entry of the source."}
{"smiles": "Nc1c([N+](=O)[O-])ncn1[C@@H]1O[C@H](COP(=O)(O)O)[C@@H](O)[C@H]1O", "note": "[Compound 3, 4-nitro-5-aminoimidazole ribonucleotide]", "values": [{"measurement": "fold tighter affinity for the enzyme than CAIR", "setting": "[1]; compared with CAIR", "result": "10,000 fold"}, {"measurement": "type of inhibition / kinetics", "setting": "[1]; listed as NAIR", "result": "slow, tight binding inhibitor; also recorded: slow, tight-binding kinetics"}, {"measurement": "type of inhibition", "setting": "[2]", "result": "steady-state competitive inhibitor"}]}
{"smiles": "Nc1c(C(=O)O)cnn1[C@@H]1O[C@H](COP(=O)(O)O)[C@@H](O)[C@H]1O", "note": "[Compound 8, 5-Amino-1-(β-D-ribofuranosyl)pyrazole-4-carboxylate 5′-phosphate]", "values": [{"measurement": "fold difference in binding affinity, CAIR into CAPzR", "setting": "[3]; compared to CAIR", "result": 3, "unit": "fold"}, {"measurement": "binding affinity relative to CAIR", "setting": "[3]; in words", "result": "greater affinity than CAIR"}]}
{"smiles": "Nc1c(C(=O)O)nnn1[C@@H]1O[C@H](COP(=O)(O)O)[C@@H](O)[C@H]1O", "note": "[Compound 10, 5-Amino-1-(β-D-ribofuranosyl)-1,2,3-triazole-4-carboxylate 5′-phosphate]", "values": [{"measurement": "alternative substrate for the enzyme", "setting": "[4]", "result": "neither compound is an alternative substrate"}]}
